From ChEMBL document CHEMBL1201862, “PubChem BioAssay data set” (2004)
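48-hour exposure; five concentrations; linearly interpolated endpoints. GI50 marks 50% less growth.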 The source made the active and inactive calls. Rule as the data show it: active = GI50 up to about 1.1 µM and inactive = higher.

Experiments:
Experiment in all cases: NCI-60 cell line screen, 48 h
[1] = test system: OVCAR-3
[2] = test system: IGROV-1
[3] = test system: SK-MEL-28
[4] = test system: HCT-116
[5] = test system: ACHN
[6] = test system: NCI/ADR-RES
[7] = test system: 786-0
[8] = test system: SF-539
[9] = test system: K562
[10] = test system: SN12C
[11] = test system: LOX IMVI
[12] = test system: SK-MEL-2
[13] = test system: MCF7
[14] = test system: NCI-H23
[15] = test system: SF-295
[16] = test system: SNB-19
[17] = test system: UACC-62
[18] = test system: UACC-257
[19] = test system: RPMI-8226
[20] = test system: TK-10

Measured: GI50

Cc1ccc(/C=C2\N=C(N3CCCC(CO)C3)NC2=O)cc1 (stereo not drawn)
inactive: [1] > 100 µM | [2] > 100 µM | [3] > 100 µM | [4] > 100 µM | [5] > 100 µM | [6] > 100 µM | [7] > 100 µM | [8] > 100 µM | [9] > 100 µM | [10] > 100 µM | [11] > 100 µM | [12] > 100 µM | [13] > 100 µM | [14] > 100 µM | [15] > 100 µM | [16] > 100 µM | [17] > 100 µM | [18] > 100 µM | [19] > 100 µM | [20] > 100 µM

O=c1[nH]nc(Cc2ccc(Cl)cc2)n1/N=C/c1c[nH]c2ccccc12
inactive: [1] > 100 µM | [2] > 100 µM | [3] > 100 µM | [4] > 100 µM | [5] > 100 µM | [6] 82.8 µM | [7] > 100 µM | [8] > 100 µM | [9] > 100 µM | [10] > 100 µM | [11] > 100 µM | [12] > 100 µM | [13] > 100 µM | [14] > 100 µM | [15] > 100 µM | [16] > 100 µM | [17] > 100 µM | [18] > 100 µM | [19] 26.3 µM | [20] > 100 µM

CC(=O)NC1C(OCc2ccccc2)OC(CO)C(O)C1OCC(=O)N[C@@H](C)C(=O)N[C@H](CCC(=O)NCCNCCNc1c2ccccc2nc2cccc([N+](=O)[O-])c12)C(N)=O (stereo partly drawn)
inactive: [1] 44 µM | [2] 8.87 µM | [3] > 100 µM | [4] 19.5 µM | [5] 26.7 µM | [6] > 100 µM | [7] 25.4 µM | [8] 33.3 µM | [9] 32.3 µM | [10] 59.7 µM | [11] 23.5 µM | [12] 22.3 µM | [13] 37.9 µM | [14] 16.4 µM | [15] 57.4 µM | [16] 38.9 µM | [17] 17.7 µM | [18] 21.2 µM | [19] 24.4 µM | [20] 31.8 µM

O=C(/C=C1\Nc2ccccc2N\C1=C/C(=O)c1ccc(F)cc1)c1ccc(F)cc1
inactive: [1] 48.2 µM | [2] > 100 µM | [3] > 100 µM | [4] > 100 µM | [5] > 100 µM | [6] > 100 µM | [7] 61.4 µM | [8] > 100 µM | [9] > 100 µM | [10] > 100 µM | [11] > 100 µM | [12] > 100 µM | [13] 15.1 µM | [14] > 100 µM | [16] > 100 µM | [17] > 100 µM | [18] > 100 µM | [19] 51.4 µM | [20] > 100 µM

C=C1CCC2CC1[C@@H](C(=O)c1c[nH]c3ccccc13)NC2(C)C (stereo partly drawn)
inactive: [1] > 37.5 µM | [2] > 37.5 µM | [3] > 37.5 µM | [4] > 37.5 µM | [5] > 37.5 µM | [6] > 37.5 µM | [7] > 37.5 µM | [8] > 37.5 µM | [9] 21.9 µM | [10] > 37.5 µM | [11] > 37.5 µM | [12] 27.1 µM | [13] > 37.5 µM | [14] > 37.5 µM | [15] > 37.5 µM | [17] 18.7 µM | [18] > 37.5 µM | [19] > 37.5 µM | [20] > 37.5 µM
